We go through 2 molecules from patent publication EP3076168A1, “An electrochemical sensor” (Unisense Environment A/S, priority 2015, dated 2016).

Series [1] can be described thus: Solubility test of oxygen scavenger candidates (solvent added for a final 1 M, visual inspection of remaining solid). Format: physicochemical. The following applies: stated as substantially lower than 1 M. As to the method:
In other cases, solubility tests with acetonitrile instead of propylene carbonate was performed.
In the case that solids remained after addition of solvent and vigorous stirring, the solubility of a candidate is assessed by visual inspection of the amount of remaining compound versus the amount of compound prior to solvent addition. In the case of a commercially available candidate dissolved in tetrahydrofuran (THF), the THF is removed under reduced pressure prior to addition of solvent.

A short description of series [2]: Profiling: penetration of oxygen through candidate solution, measured with an OX10 oxygen microsensor. The settings on record: 0.1 M solution in propylene carbonate. Here is the method:
The penetration of oxygen through the solution of the candidates was determined using an OX10 oxygen microsensor from Unisense A/S in conjunction with a microprofiling laboratory stand.
A small capillary, cautiously filled with candidate solution in order to avoid bulk oxidation, was placed underneath the tip of the oxygen microsensor. The microprofiling stand was remotely controlled by the bundled software in order to move the microelectrode tip with five to ten micrometers between each concentration measurement. The microelectrode was calibrated prior to each candidate measurement using air-bubbled demineralised water and oxygen-free alkaline ascorbic acid solution.
The microsensor was used to profile oxygen-free alkaline ascorbic acid solution prior to and after measurement of each candidate to 1) ensure that physical damage during candidate measurement could be detected and to 2) provide baseline signal for normalisation of candidate profiles.
Each candidate profile was subtracted the baseline signal and normalised with respect to surface oxygen concentration in order to assess the candidate oxygen removal efficiency. A normalised signal of unity equals surface oxygen concentration and a normalised signal of 0.01 equals a dissolved oxygen concentration of 1 % of surface concentration.

As for `CC(C)(C)P(CCCC[N+]1(C)CCOCC1)C(C)(C)C.[Br-]` [Candidate 10, N-[4-(di-tert-butylphosphino)butyl]-N-methylmorpholinium bromide], in series [1], the “Concentration in propylene carbonate (PC)” value is listed as “lower than 1 M”.

As to `c1ccc(Pc2ccccc2)cc1` [Candidate 1, Diphenylphosphine], the Oxygen profile depth entry in series [2] is “ca. 75 µm”.
